According to US20120071539A1, “COMPOUNDS AND METHODS FOR MODULATING THE SILENCING OF A POLYNUCLEOTIDE OF INTEREST” (Emory University, priority 2006, published 2012):
Counter-ions that a name gives are not always drawn.

Legend:
tumor cell models = conditions: cited from earlier work
[1] = system: Clone#3, 293-EGFP-siGFP cells; assay: plate-reader chemical library screen, GFP signal in Clone#3 cells; type: cell-based, human; conditions: for Clone#3, 293-EGFP-siGFP cells GFP signal intensity with Drug alone: plate reader
From the text: Further, in some embodiments, additional screens using the same library can be performed to identify other modulators of the siRNA and the miRNA pathways. In some embodiments, instead of examining the GFP signal visually under a microscope, the GFP signal can be quantified using an automatic plate reader. In such embodiments, two additional rounds of screening can be performed. In the first round of screening, the clones can be treated with compounds from a library, e.g., The Spectrum Collection, alone and the GFP level can be quantified after a period of time, e.g., 48 hours. In the second round of screening, the clones can be treated with compounds from a library, e.g., The Spectrum Collection, in the presence of 50 μM RNAi-E, i.e., enoxacin. This assay enables compounds that can modulate the activity of RNAi-E to be identified.
(§1) The presently disclosed chemical library also was screened using a plate reader to quantify the GFP signal intensity. The following screens were conducted: (1) repeating chemical screen using plate reader to quantify the GFP signal (50 mM each drug); (2) treating cells with 50 mM RNAi-I (30 mM each additional drug); and treating cells with […] (30 mM each additional drug).
(§2) For each screen, two types of cells were used: Clone#3 and EGFP. Clone#3 cells are 293-EGFP-siGFP and could be used to identify the modulators of the RNAi pathway. EGFP cells are 293-EGFP only and were used as a control to eliminate the compounds that could kill the cells or interfere GFP signals that are not related to RNAi pathway. The results for each screen are summarized in Table 2 and Table 3, respectively.
(§3) In these three screens, compounds were identified that could either enhance or inhibit RNAi activity in Clone#3, but had no effect on EGFP cells, which would indicate that these compounds might specifically work on RNAi pathway. The modulation of RNAi activity by these compounds was calculated as the percentage of GFP signal to Clone#3 control cells.

EGFP, 293-EGFP cells = assay: plate-reader chemical library screen, GFP signal in control EGFP cells; type: cell-based, human; conditions: for EGFP, 293-EGFP cells With RNAi-E / EGFP, 293-EGFP cells Drug alone: GFP signal
Description: as §1, §2, §3

[2] = system: siRNA-mediated mRNA degradation; assay: cell-based reporter screen: human 293 cells stably expressing GFP plus siRNA hairpin against GFP; conditions: for Modulation Effect (inhibit or enhance siRNA-mediated mRNA degradation): Table 1
Description: FIG. 2 discloses one embodiment of the cell-based reporter system of the invention. In this example, a human 293-cell line stably expressing a reporter gene, GFP, was used. This cell line was further transfected with a construct that expresses siRNA hairpin against GFP, which can decrease the level of GFP expression. Individual clones were isolated with greatly (although not completely) reduced GFP expression.
Using the above-identified clones, a screen was performed using The Spectrum Collection (MicroSource Discovery Systems, Inc., Gaylordsville, Conn., United States of America), which contains 2000 biologically active and structurally diverse compounds from libraries of known drugs, experimental bioactives, and pure natural products. For example, in one embodiment, a pilot screen of this library identified one inhibitor and one enhancer of siRNA-mediated mRNA degradation.
To identify the chemical compounds that modulate the siRNA and miRNA pathway, a screening strategy was used. A human 293-cell line stably expressing a reporter gene, GFP, was used. This cell line was further transfected with a construct that expresses siRNA hairpin against GFP, which could knock down the expression of GFP. […] Using these clones, a screen was performed using The Spectrum Collection, which contains 2000 biologically active and structurally diverse compounds from libraries of known drugs, experimental bioactives, and pure natural products.
Human 293 cells stably expressing a reporter gene, GFP, were further transfected with a construct that expresses an siRNA hairpin against GFP, which results in the knock-down of the expression of GFP. Transfected cells containing the siRNA suppressed GPF expression were split and then treated with an effective amount of enoxacin (FIG. 4, second panel) and were grown for a period of 24-48 hours.

[3] = 50 mM RNAi-E, 30 mM each additional drug
[4] = 50 mM RNAi-E, 30 mM each additional drug, values given as decimals
[5] = 50 mM each drug, values given as decimals

Structure (SMILES)	Clone#3, 293-EGFP-siGFP cells GFP signal intensity with Drug and RNAi-E [1, 3]	Clone#3, 293-EGFP-siGFP cells GFP signal intensity with Drug alone ([1]; 50 mM each drug)	Effect ([1]; Table 2)	Effect ([1]; as listed in Table 3)	EGFP, 293-EGFP cells With RNAi-E (EGFP, 293-EGFP cells; [3])	EGFP, 293-EGFP cells Drug alone (EGFP, 293-EGFP cells; 50 mM each drug)	Modulation Effect (inhibit or enhance siRNA-mediated mRNA degradation) [2]	also measured
NC(=S)NN=Cc1ccc(O)cn1 [5-HP, 5-hydroxypyridine-2-carboxaldehyde thiosemicarbazone]								anti-proliferative activity (tumor cell models): anti-proliferative activity
Nc1nc2[nH]cnc2c(=S)[nH]1 [Thioguanine]	9228044.75	11903224.8	Enhancer	Enhancer	193528220	181033260	Enhancer	
O=C(NCCN(CCNC(=O)c1cc(S(=O)(=O)O)c2cccnc2c1O)CCNC(=O)c1cc(S(=O)(=O)O)c2cccnc2c1O)c1cc(S(=O)(=O)O)c2cccnc2c1O [OTX, O-trensox]								anti-proliferative activity (tumor cell models): anti-proliferative activity
CC(=O)N(O)CCCCCNC(=O)CCC(=O)N(O)CCCCCNC(=O)CCC(=O)N(O)CCCCCN [Deferoxamine Mesylate]	12987131	15874023.8			194519648	194929488		
O=C1CC[C@]23/C=C/C(=O)NCCCCNCCCNC(=O)/C=C/c4ccc(c2c4)O[C@@H]3C1 [Lunarine]	11171512	9353700	Enhancer	Enhancer	130354040	131010562	Enhancer	
Cc1cc(=O)c2c(O)c3c(cc2o1)OCC(C)CC3 (stereo not shown) [Dihydroptaeroxylin]	17140237.8	26383349	Enhancer	Enhancer	194786588	215783848	Enhancer	Clone#3, 293-EGFP-siGFP cells % GFP signal intensity with drug + RNAi-E/Control (no drug) [1, 4]: 59.4446%; Clone#3 293-EGFP-siGFP cells % GFP signal intensity with drug alone/Control (no drug) [1, 5]: 91.5009%; EGFP, 293-EGFP cells Control % (With RNAi-E) (EGFP, 293-EGFP cells; [4]): 95.4836%; EGFP, 293-EGFP cells Control % (Drug alone) (EGFP, 293-EGFP cells; [5]): 105.776%
Cc1ncc(CO)c(C=NNC(=O)c2ccncc2)c1O [P1H, pyridoxal isonicotinoyl hydrazone]								anti-proliferative activity (tumor cell models): anti-proliferative activity
O=C(O)CCC(=O)c1ccc(-c2ccccc2)cc1 [Fenbufen]	17801864.5	26499027	Enhancer	Enhancer	191729340	204633204	Enhancer	
CC(=O)N(O)CCCCCNC(=O)CCC(=O)N(O)CCCCCNC(=O)CCC(=O)N(O)CCCCCN [desferrioxamine]								anti-proliferative activity (tumor cell models): anti-proliferative activity; sensitivity of aggressive tumors to Fe chelation therapy (tumor cell models; neuroblastoma (NB) and leukemia, in vitro, in vivo and clinical trials): sensitive
COc1cc(C(=O)NCc2ccc(OCCN(C)C)cc2)cc(OC)c1OC [trimethobenzamide]								siRNA-mediated mRNA degradation and gene knock-down ([2]; pilot screen of The Spectrum Collection, FIG. 3, FIG. 4): inhibit siRNA-mediated mRNA degradation and gene knock-down
CC(=O)O[C@@H]1C[C@H]2C(C)(C)[C@@H](O)CC[C@]2(C)[C@H]2CC[C@]3(C)C(=CC(=O)O[C@H]3c3ccoc3)[C@@]21C [3-beta-Hyroxydeoxo-dihydrodeoxygedunin, 3-beta-hydroxydeoxodihydrodeoxygedunin]	13998738	17430963	Enhancer	Enhancer	186574276	213530556	Enhancer	
Cc1ccc(/C(=C\CN2CCCC2)c2ccccn2)cc1 [Triprolidine Hydrochloride]	19639902.5	26791778.5			202110668	202102776		
CC(C)C[C@H]1C(=O)N2CCC[C@H]2[C@]2(O)O[C@](NC(=O)[C@@H]3C=C4c5cccc6[nH]c(Br)c(c56)C[C@H]4N(C)C3)(C(C)C)C(=O)N12 [Bromocriptine Mesylate]	10893798	7607590			136409552	132392840		
COc1cc2c(cc1OC)C(=O)OC2 [Metameconine]			Inhibitor	Inhibitor			Inhibitor	
C=C[C@@]1(C)CC(=O)[C@]2(O)[C@@]3(C)[C@@H](O)CCC(C)(C)[C@@H]3[C@H](O)[C@H](OC(C)=O)[C@@]2(C)O1 [Colforsin]			Inhibitor	Inhibitor			Inhibitor	
NC(=S)NN=Cc1ncccc1N [Triapine, 3-aminopyridine-2-carboxaldehyde thiosemicarbazone]								activity against tumor cell models (tumor cell models): has activity against a variety of tumor cell models; anti-proliferative activity (tumor cell models): anti-proliferative activity
CC(=O)O[C@H]1C[C@@]2(C)[C@@H](C[C@@H](O)[C@H]3[C@@]4(C)CC[C@@H](O)[C@@H](C)[C@@H]4CC[C@@]32C)/C1=C(\CCC=C(C)C)C(=O)O [Fusidic Acid]	18581363.5	27803206.5	Enhancer	Enhancer	192354884	229560272	Enhancer	
C=C1C2CCC3(C)C(c4ccoc4)OC(=O)CC13OC1CC(O)C(C)(C)C(CC(=O)OC)C12C (stereo not drawn) [3-alpha-hydroxy-3-deoxyangolensic acid methyl ester]	10902446	10997867	Enhancer	Enhancer	118263232	129330172	Enhancer	
